Experiments:
[1] = target: T1, Neuropeptide Y receptor type 1 (Homo sapiens, UniProt P25929)
T1 sequence (P25929 whole entry): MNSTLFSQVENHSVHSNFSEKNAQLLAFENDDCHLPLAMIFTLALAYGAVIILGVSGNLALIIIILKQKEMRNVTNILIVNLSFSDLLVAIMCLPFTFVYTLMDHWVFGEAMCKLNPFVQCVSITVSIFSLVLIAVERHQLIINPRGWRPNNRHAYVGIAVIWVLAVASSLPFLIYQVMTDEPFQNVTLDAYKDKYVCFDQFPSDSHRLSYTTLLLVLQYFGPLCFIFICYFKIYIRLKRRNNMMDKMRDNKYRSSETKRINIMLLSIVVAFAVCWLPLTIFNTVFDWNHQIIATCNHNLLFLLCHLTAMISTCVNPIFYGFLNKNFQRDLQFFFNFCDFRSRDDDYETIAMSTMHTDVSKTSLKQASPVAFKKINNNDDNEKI

Glucocorticoid receptor = target: T2, Glucocorticoid receptor (Homo sapiens, UniProt P04150)
T2 sequence (P04150 whole entry): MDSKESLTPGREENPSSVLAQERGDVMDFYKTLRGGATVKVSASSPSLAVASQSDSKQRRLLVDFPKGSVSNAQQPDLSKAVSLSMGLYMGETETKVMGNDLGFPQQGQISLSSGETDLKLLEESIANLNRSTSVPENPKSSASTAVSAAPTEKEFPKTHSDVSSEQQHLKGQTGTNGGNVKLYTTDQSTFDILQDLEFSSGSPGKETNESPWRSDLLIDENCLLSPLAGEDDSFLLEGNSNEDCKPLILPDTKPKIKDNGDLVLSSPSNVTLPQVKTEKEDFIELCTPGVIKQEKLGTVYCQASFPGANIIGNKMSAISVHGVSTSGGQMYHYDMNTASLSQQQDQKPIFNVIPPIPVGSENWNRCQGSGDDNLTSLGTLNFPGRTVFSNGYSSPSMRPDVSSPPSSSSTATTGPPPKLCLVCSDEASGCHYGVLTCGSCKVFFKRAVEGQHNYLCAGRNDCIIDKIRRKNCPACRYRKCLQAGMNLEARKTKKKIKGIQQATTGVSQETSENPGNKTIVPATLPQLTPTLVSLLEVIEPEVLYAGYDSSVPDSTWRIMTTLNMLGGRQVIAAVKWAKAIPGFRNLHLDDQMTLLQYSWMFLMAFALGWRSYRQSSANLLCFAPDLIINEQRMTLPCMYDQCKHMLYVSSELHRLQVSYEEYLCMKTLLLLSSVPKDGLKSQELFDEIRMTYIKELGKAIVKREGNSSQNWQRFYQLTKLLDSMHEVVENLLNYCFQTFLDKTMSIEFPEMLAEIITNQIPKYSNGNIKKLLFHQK

[2] = target: T3, Muscarinic acetylcholine receptor M2 (Homo sapiens, UniProt P08172)
T3 sequence (P08172 whole entry): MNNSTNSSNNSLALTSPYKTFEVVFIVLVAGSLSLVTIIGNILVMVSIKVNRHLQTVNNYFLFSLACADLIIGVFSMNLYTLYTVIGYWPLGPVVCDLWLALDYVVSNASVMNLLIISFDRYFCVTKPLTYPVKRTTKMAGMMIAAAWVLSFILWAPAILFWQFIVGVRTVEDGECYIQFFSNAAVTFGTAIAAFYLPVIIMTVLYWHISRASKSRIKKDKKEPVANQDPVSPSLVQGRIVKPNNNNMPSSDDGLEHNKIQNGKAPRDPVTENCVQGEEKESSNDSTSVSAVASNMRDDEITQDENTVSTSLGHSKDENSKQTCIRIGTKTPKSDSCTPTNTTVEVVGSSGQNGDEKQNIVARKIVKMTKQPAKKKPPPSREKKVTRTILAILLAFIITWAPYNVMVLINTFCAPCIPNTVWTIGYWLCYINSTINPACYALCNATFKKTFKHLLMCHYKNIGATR

[3] = target: Vascular endothelial growth factor receptor 2 (Homo sapiens, UniProt P35968); assay type: functional
[4] = target: Sodium-dependent dopamine transporter (Homo sapiens, UniProt Q01959)
[5] = target: T4, Gastrin/cholecystokinin type B receptor (Homo sapiens, UniProt P32239)
T4 sequence (P32239 whole entry): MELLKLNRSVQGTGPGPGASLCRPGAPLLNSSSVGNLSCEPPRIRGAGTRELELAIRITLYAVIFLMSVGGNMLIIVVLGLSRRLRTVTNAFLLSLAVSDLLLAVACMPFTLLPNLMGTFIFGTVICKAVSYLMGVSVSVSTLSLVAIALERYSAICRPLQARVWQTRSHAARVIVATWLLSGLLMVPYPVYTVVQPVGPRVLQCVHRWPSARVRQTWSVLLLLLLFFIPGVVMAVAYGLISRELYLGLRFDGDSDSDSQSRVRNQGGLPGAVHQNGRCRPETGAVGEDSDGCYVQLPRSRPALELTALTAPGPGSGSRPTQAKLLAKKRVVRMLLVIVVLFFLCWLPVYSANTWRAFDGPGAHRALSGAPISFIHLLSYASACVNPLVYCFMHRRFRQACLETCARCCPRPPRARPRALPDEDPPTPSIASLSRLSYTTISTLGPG

Measured: AC50
Further: assay procedure not described here.

Chain of Vascular endothelial growth factor receptor 2 (P35968 whole entry): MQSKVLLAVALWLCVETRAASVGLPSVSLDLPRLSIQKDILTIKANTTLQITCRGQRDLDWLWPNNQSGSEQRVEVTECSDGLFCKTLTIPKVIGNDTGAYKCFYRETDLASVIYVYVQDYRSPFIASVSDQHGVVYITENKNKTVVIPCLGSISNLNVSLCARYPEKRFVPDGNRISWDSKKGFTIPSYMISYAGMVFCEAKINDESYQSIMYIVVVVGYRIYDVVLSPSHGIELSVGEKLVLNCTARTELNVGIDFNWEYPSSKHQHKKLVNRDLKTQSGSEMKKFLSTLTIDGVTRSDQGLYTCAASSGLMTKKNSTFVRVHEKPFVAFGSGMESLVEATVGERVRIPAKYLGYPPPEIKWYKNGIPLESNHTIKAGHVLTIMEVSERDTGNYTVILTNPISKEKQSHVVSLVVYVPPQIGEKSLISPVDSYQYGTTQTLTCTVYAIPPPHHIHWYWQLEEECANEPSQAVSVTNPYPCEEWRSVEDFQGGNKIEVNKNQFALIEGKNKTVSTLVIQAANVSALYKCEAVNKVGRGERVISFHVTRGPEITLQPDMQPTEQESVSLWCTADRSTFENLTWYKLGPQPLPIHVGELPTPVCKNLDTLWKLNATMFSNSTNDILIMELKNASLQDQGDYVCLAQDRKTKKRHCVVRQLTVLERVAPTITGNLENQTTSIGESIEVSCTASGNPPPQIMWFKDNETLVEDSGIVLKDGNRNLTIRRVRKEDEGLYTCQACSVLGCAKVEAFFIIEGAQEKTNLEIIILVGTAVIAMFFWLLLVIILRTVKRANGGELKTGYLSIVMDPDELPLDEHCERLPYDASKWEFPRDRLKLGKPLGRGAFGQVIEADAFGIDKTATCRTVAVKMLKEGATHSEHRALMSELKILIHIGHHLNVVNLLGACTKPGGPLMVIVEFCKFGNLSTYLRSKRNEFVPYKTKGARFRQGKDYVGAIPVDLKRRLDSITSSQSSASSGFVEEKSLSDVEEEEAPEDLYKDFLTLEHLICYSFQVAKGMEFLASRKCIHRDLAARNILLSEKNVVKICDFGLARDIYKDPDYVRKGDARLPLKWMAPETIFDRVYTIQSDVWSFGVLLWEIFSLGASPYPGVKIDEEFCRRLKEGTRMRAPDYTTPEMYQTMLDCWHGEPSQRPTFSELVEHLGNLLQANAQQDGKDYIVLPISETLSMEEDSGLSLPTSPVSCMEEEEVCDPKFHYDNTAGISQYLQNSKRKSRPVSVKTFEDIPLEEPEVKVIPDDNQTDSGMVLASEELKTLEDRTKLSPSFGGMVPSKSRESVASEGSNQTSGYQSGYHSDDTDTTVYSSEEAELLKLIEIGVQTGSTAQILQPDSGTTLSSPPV
Chain of Sodium-dependent dopamine transporter (Q01959 whole entry): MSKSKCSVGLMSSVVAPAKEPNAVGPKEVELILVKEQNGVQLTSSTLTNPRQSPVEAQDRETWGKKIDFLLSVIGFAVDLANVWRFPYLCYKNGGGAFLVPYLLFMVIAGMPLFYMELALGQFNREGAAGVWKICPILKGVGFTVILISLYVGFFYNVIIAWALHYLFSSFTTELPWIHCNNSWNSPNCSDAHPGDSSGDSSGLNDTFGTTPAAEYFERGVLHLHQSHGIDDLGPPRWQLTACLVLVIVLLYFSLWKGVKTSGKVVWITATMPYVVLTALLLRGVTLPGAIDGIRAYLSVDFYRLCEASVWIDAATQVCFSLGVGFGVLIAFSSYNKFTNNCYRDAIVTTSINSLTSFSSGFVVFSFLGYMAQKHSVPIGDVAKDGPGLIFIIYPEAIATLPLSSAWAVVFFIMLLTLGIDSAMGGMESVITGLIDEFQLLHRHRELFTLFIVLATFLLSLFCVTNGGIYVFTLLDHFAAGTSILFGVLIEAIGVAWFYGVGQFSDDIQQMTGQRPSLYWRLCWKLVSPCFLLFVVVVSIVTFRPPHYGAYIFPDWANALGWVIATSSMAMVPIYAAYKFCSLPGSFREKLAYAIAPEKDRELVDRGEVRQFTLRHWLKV

CCOC(=O)[C@H](CCc1ccccc1)N[C@@H](C)C(=O)N1Cc2ccccc2C[C@H]1C(=O)O
> 10 µM: [4]
> 30 µM: all other assays above

CC(=O)Oc1ccccc1C(=O)O [ASPIRIN]
> 30 µM: all assays above

NCC1(CC(=O)O)CCCCC1 [GABAPENTIN]
> 30 µM: all assays above
